Experimental data as given in patent publication US20250000855A1, “USE OF APOMORPHINE AS THERAPEUTIC AGENT FOR NECROPTOSIS-RELATED DISEASES” (INDUSTRY-ACADEMIC COOPERATION FOUNDATION, YONSEI UNIVERSITY, priority 2021, published 2025).

Assays:
Type in all cases: cell-based, human
[1] = tested on: MLKL oligomerization; assay: MLKL oligomerization (tetramer and octamer bands) by non-reducing or reducing SDS-PAGE; conditions: cytoplasmic and membrane fractions, necroptosis induced with TBZ, FIG. 2 / FIG. 6A
Description: (§1) Cells were pretreated with Z-VAD (invivoGen, tlrl-vad) and a compound for 1 hour, and necroptosis was induced with TNF-α (ATGen, TNF0501) and BV6 (Biovision, B1332-5) for the indicated time. The prepared cells were appropriately treated according to analysis (Z-VAD: carbobenzoxy-valyl-alanyl-aspartyl, TNF-α: tumor necrosis factor-α, BV6: 4,4′-(1,6-hexanediyl)bis[N-methyl-L-alanyl-(2S)-2-cyclohexylglycyl-L-prolyl-β-phenyl-L-phenylalaninamide)
Cells were treated with a drug candidate and then collected using centrifugation at 4° C. and 1,500×g for 5 minutes. A supernatant was centrifuged again at 4° C. and 1,500×g for 5 minutes to remove remaining debris, concentrated at 4° C. and 14,000×g for 30 minutes using Amicon ultra-0.5 centrifugal filter unit 10K (Millipore, UFC501096), and stored. […] The extracted protein concentration was measured using a bicinchoninic acid (BCA) protein assay kit (Thermo Fisher Scientific, 23225). […]
To test whether the tetramer and octamer formation of p-MLKL for pore formation in the cell membrane is inhibited by apomorphine (APO), cells that had been treated with each molecule for the indicated time were separated into cytoplasmic and membrane fractions and analyzed through non-reducing or reducing sodium dodecyl sulfate-polyacrylamide gel electrophoresis (SDS-PAGE), and then investigated with specific antibodies (Experimental Method 1-6). […]

[2] = tested on: HMGB1 secretion; assay: HMGB1 secretion into supernatant of TBZ-treated THP-1 cells, Western blotting; conditions: APO 1, 5, 20, 80, or 320 μM for 8 hours, vs TBZ only-treated group, FIG. 4
Description: Cells were treated with a drug candidate and then collected using centrifugation at 4° C. and 1,500×g for 5 minutes. A supernatant was centrifuged again at 4° C. and 1,500×g for 5 minutes to remove remaining debris, concentrated at 4° C. and 14,000×g for 30 minutes using Amicon ultra-0.5 centrifugal filter unit 10K (Millipore, UFC501096), and stored. The collected cells were lysed using 1× radioimmunoprecipitation assay (RIPA) buffer (GenDEPOT, R4100-010) containing a 1× protease inhibitor (GenDEPOT, P3100-001) and a phosphatase inhibitor (Thermo Fisher Scientific, 1862495). Subsequently, the cell lysate was centrifuged at 4° C. and 20,000×g for 30 minutes to remove debris. The extracted protein concentration was measured using a bicinchoninic acid (BCA) protein assay kit (Thermo Fisher Scientific, 23225). […]
To test whether secretion of HMGB1, a representative damage-associated molecular pattern, which is one of the characteristics of necroptosis, is inhibited by treating THP-1 cells with necroptosis induced by TBZ treatment with APO, after concentration-dependent treatment (1, 5, 20, 80, or 320 μM) with APO for 8 hours, all of the supernatant was concentrated, analyzed by SDS-PAGE, and investigated with an HMGB1 antibody (Experimental Method 1-6). […]

[3] = tested on: THP-1 cells; assay: Propidium iodide (PI) uptake / cell membrane integrity in TBZ-induced necroptosis
Description: as §1
Cells were plated in a flat, transparent-bottomed, black-walled 96-well plate, and subjected to 7-hour chemical treatment and necroptosis induction, and then PI (BD Biosciences, 556463) was added to a final concentration of 50 μg/ml. After incubation for 10 minutes under the original culture conditions, the cells were centrifuged at 400×g for 5 minutes. The emission wavelength at 617 nm following excitation at 530 nm was measured by real-time fluorescence monitoring on a Varioskan Flash 3001 plate reader. Data collection was performed at 37° C. (FIG. 1A).
As a first screening process, to investigate changes in cell membrane integrity by measuring PI uptake (Experimental Method 1-8), a compound in which the PI uptake had been reduced to less than 30% of the signal intensity upon TBZ treatment was selected.
After treating TBZ+APO-treated THP-1 cells with PI for 10 minutes, the PI taken up by the cells was measured on a microplate reader. […]

In the case of CN1CCc2cccc3c2[C@H]1Cc1ccc(O)c(O)c1-3 [APO, apomorphine], the “intensities of the tetramer and octamer bands of MLKL” value [1] is reported as “decreased”, the “amount of HMGB1 secreted into the supernatant” value [2] is reported as “decreased” and the IC50 ([3]; Homo sapiens, THP-1, concentration-dependent APO treatment, FIG. 1D, read-out: IC50, change in cell membrane integrity) is reported as 5.7 µM. For the same compound, the PI uptake rate ([3]; THP-1 cells treated with TBZ (TNF-α+BV6+Z-VAD)+APO, PI 10 minutes, FIG. 1A) was “effectively reduced”.
